Several values for one entry are separate records, joined by “and”; a condition that tells them apart may be missing. Identical values can stand only once. Entries after “also recorded” stand apart in the source; their conditions may differ. Like-named read-outs stand apart in the source and are kept apart here. Each block holds one compound with its values, some of them ahead of it.
How the values were obtained:
D80^2.50A c-myc-D2LR = target: T1, D80^2.50A c-myc-D2LR (Homo sapiens, UniProt P14416, D80A); assay: [3H]spiperone competition binding, membranes of Flp-In CHO cells; conditions: for Ki / logα (logarithm of the cooperativity factor between the modulator and [3H]spiperone) / α (cooperativity factor with [3H]spiperone) / Kb: D80A; for Ki: 100 µM GppNHp; for Kb: allosteric ternary complex model
T1 construct: expressed in transfected cells
Protocol: (§1) Flp-In CHO cells (Invitrogen) were transfected with the pOG44 vector encoding Flp recombinase and the pDEST vector encoding the wild-type or mutant c-Myc-D2LR at a ratio of 9:1 using polyethylenimine (Polysciences, Warrington, PA) as transfection reagent. 24 hours after transfection the cells were subcultured and the medium was supplemented with 700 μg/ml hygromycin B as selection agent to obtain cells stably expressing the c-Myc-D2LR. FlpIn CHO cells stably expressing the wild-type or mutant c-Myc-D2LR were grown in Dulbecco’s modified Eagle’s medium (DMEM) supplemented with 10% fetal bovine serum and 200 µg/mL of Hygromycin-B, and maintained at 37 °C in a humidified incubator containing 5% CO2. When cells were approximately 90% confluent, they were harvested and centrifuged (300 g, 3 min, 4 °C). The resulting pellet was resuspended in assay buffer either in the presence (20 mM HEPES, 100 mM NaCl, 6 mM MgCl2, 1 mM EGTA, and 1 mM EDTA, pH 7.4) or absence (20 mM HEPES, 100 mM NMDG, 6 mM MgCl2, 1 mM EGTA, and 1 mM EDTA, pH 7.4) of sodium ions. The centrifugation procedure was repeated. The intact cell pellet was then resuspended in assay buffer and homogenized using a Polytron homogenizer for three 10 s intervals on the maximum setting, with 30 s periods on ice between each burst. The homogenate volume was brought up to 30 mL, the sample was centrifuged (350 g, 5 min, 4 °C), the pellet was discarded, and the supernatant was centrifuged at 30 000 g for 1 hr at 4 °C. The resulting pellet was resuspended in 5 mL of assay buffer, and the protein content was determined using the bicinchoninic acid assay (BCA assay). The homogenate was then separated into 500 µl aliquots and stored at −80 °C until it was required for binding assays.
(§2) Binding was terminated by fast-flow filtration over GF/B membranes using a Brandel harvester followed by three washes with ice-cold 0.9% NaCl. Bound radioactivity was measured in a Tri-Carb 2900TR liquid scintillation counter (PerkinElmer).
(§3) Values of α > 1 denote positive cooperativity, values < 1 (but > 0) denote negative cooperativity and values = 1 denote neutral cooperativity.
(§4) IC50 values obtained from the inhibition curves were converted to Ki values using the Cheng and Prusoff equation[35].

E95^2.65A c-myc-D2LR = target: T2, E95^2.65A c-myc-D2LR (Homo sapiens, UniProt P14416, E95A); assay: as above; conditions: for fold decrease in affinity at E95A mutant in the absence of Na+ vs E95A in the presence of Na+: 100 mM NMDG vs 100 mM NaCl; for Ki / logα (logarithm of the cooperativity factor between the modulator and [3H]spiperone) / α (cooperativity factor with [3H]spiperone) / Kb: E95A; for Ki: 100 µM GppNHp; for Kb: allosteric ternary complex model
T2 construct: expressed in transfected cells
Protocol: as §1, §2, §3, §4

WT c-myc-D2LR = target: T3, WT c-myc-D2LR (Homo sapiens, UniProt P14416); assay: as above; conditions: for fold loss in affinity in the absence of Na+ vs presence of Na+: WT D2LR, 100 mM NMDG vs 100 mM NaCl; for Ki / Kb / logα (logarithm of the cooperativity factor between the modulator and [3H]spiperone) / α (cooperativity factor with [3H]spiperone): WT
T3 construct: expressed in transfected cells
Protocol: as §1, §2, §3, §4

[1] = test system: D2R Tyr^7.43 to cysteine mutant; conditions: cited from earlier work
[2] = 100 mM NaCl, 0.15 nM [3H]spiperone, read-out: Ki (converted)
[3] = 100 mM NaCl, 0.15 nM [3H]spiperone, read-out: pKi (converted)
[4] = 100 mM NMDG (no Na+), 0.15 nM [3H]spiperone, read-out: Ki (converted)
[5] = 100 mM NMDG (no Na+), 0.15 nM [3H]spiperone, 100 µM GppNHp, read-out: pKi (converted)
[6] = 100 mM NaCl, 0.15 nM [3H]spiperone, 100 µM GppNHp, read-out: pKi (converted)
[7] = 100 mM NaCl, 0.5 nM [3H]spiperone
[8] = 100 mM NMDG (no Na+), 0.5 nM [3H]spiperone
[9] = 100 mM NMDG (no Na+), 0.15 nM [3H]spiperone
[10] = 100 mM NaCl, 0.15 nM [3H]spiperone
[11] = 100 mM NMDG (no Na+), 0.15 nM [3H]spiperone, ND = no inhibition of [3H]spiperone binding detected

T2 sequence (P14416 whole entry E95A): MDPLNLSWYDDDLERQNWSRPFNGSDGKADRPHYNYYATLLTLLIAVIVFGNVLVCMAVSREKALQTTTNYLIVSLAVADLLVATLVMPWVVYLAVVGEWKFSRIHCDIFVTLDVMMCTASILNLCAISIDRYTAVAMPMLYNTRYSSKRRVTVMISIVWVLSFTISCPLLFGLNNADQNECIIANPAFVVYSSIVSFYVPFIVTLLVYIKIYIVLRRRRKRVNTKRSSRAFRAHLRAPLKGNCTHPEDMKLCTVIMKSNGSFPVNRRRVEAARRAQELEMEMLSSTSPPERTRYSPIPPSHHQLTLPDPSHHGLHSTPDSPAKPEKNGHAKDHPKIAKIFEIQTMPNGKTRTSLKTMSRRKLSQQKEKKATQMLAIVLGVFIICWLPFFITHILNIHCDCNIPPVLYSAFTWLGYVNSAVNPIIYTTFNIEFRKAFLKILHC
T3 sequence (P14416 whole entry): as the sequence (P14416 whole entry E95A) above, with A95E counted along it
T1 sequence (P14416 whole entry D80A): as the sequence (P14416 whole entry E95A) above, with D80A, A95E counted along it

SMILES: CC(=O)N[C@H]1CC[C@H](CCN2CCc3ccc(C#N)cc3C2)CC1 [MIPS1059, N-((trans)-4-(2-(7-cyano-3,4-dihydroisoquinolin-2(1H)yl)ethyl)cyclohexyl)acetamide]
fold loss in affinity at D80A mutant vs WT (D80^2.50A c-myc-D2LR; 100 mM NaCl): 5 fold
Ki (D80^2.50A c-myc-D2LR; 100 mM NMDG (no Na+), 0.15 nM [3H]spiperone, read-out: pKi (converted)): 1.48 µM
Ki (D80^2.50A c-myc-D2LR; [2]): 1.5 µM
Ki (D80^2.50A c-myc-D2LR; [3]): 1.51 µM
fold by which the WT vs E95A difference in affinity is greater in the presence of Na+ than in the absence of Na+ (E95^2.65A c-myc-D2LR): 2 fold
fold decrease in affinity at E95A mutant in the absence of Na+ vs E95A in the presence of Na+ (E95^2.65A c-myc-D2LR): 5 fold
Ki (E95^2.65A c-myc-D2LR; [4]): 4.8 µM
Ki (E95^2.65A c-myc-D2LR; [2]): 1.2 µM
Ki (E95^2.65A c-myc-D2LR; [3]): 1.15 µM
fold loss in affinity at E95A mutant vs WT (E95^2.65A c-myc-D2LR; absence of Na+ (100 mM NMDG)): 3 fold
fold loss in affinity at E95A mutant vs WT (E95^2.65A c-myc-D2LR; presence of Na+ (100 mM NaCl)): 5 fold
fold loss in affinity in the absence of Na+ vs presence of Na+ (WT c-myc-D2LR): 6 fold
Ki (WT c-myc-D2LR; [5]): 1.74 µM
Ki (WT c-myc-D2LR; [6]): 0.275 µM
Ki (WT c-myc-D2LR; 100 mM NaCl, complete displacement of [3H]spiperone, read-out: Ki): 0.275 µM

SMILES: CCCN1CCc2ccc(C#N)cc2C1 [MIPS1071, 2-propyl-1,2,3,4-tetrahydroisoquinoline-7-carbonitrile]
fold loss in affinity at D80A mutant vs WT (D80^2.50A c-myc-D2LR; 100 mM NaCl): 7 fold
Ki (D80^2.50A c-myc-D2LR; [4]): 7.2 µM
Ki (D80^2.50A c-myc-D2LR; [2]): 9.3 µM
Ki (E95^2.65A c-myc-D2LR; [4]): 7.6 µM
Ki (E95^2.65A c-myc-D2LR; [3]): 1.26 µM
fold loss in affinity at E95A mutant vs WT (E95^2.65A c-myc-D2LR; absence of Na+ (100 mM NMDG)): not changed
fold loss in affinity at E95A mutant vs WT (E95^2.65A c-myc-D2LR; presence of Na+ (100 mM NaCl)): not changed
fold loss in affinity in the absence of Na+ vs presence of Na+ (WT c-myc-D2LR): 9 fold
Ki (WT c-myc-D2LR; [5]): 12 µM
Ki (WT c-myc-D2LR; [6]): 1.26 µM

SMILES: CN1CN(c2ccccc2)C2(CCN(CCCC(=O)c3ccc(F)cc3)CC2)C1=O [N-methyl-spiperone]
fold decrease in affinity upon mutation of Tyr^7.43 to cysteine [1]: 3 fold

SMILES: CCN1CCCC1CNC(=O)c1cc(S(N)(=O)=O)ccc1OC (stereo not shown) [sulpiride]
fold decrease in affinity upon mutation of Tyr^7.43 to cysteine [1]: 185 fold

Now from value to compound, other results behind:

fold loss in affinity at D80A mutant vs WT (D80^2.50A c-myc-D2LR; 100 mM NaCl): > 10 fold
logα (logarithm of the cooperativity factor between the modulator and [3H]spiperone) (D80^2.50A c-myc-D2LR; [7]): −2.13 ± 0.27
α (cooperativity factor with [3H]spiperone) (D80^2.50A c-myc-D2LR; [7]): 0.007
Kb (D80^2.50A c-myc-D2LR; [7]): 0.316 µM
fold by which the WT vs E95A difference in affinity is greater in the presence of Na+ than in the absence of Na+ (E95^2.65A c-myc-D2LR): 2 fold
fold decrease in affinity at E95A mutant in the absence of Na+ vs E95A in the presence of Na+ (E95^2.65A c-myc-D2LR): 7 fold
logα (logarithm of the cooperativity factor between the modulator and [3H]spiperone) (E95^2.65A c-myc-D2LR; [8]): −1.89 ± 0.31
α (cooperativity factor with [3H]spiperone) (E95^2.65A c-myc-D2LR; [8]): 0.01
Kb (E95^2.65A c-myc-D2LR; [8]): 0.812 µM
logα (logarithm of the cooperativity factor between the modulator and [3H]spiperone) (E95^2.65A c-myc-D2LR; [7]): −1.91 ± 0.12
α (cooperativity factor with [3H]spiperone) (E95^2.65A c-myc-D2LR; [7]): 0.01
Kb (E95^2.65A c-myc-D2LR; [7]): 0.123 µM
fold loss in affinity at E95A mutant vs WT (E95^2.65A c-myc-D2LR; absence of Na+ (100 mM NMDG)): 2 fold
fold loss in affinity at E95A mutant vs WT (E95^2.65A c-myc-D2LR; presence of Na+ (100 mM NaCl)): 4 fold
Kb (WT c-myc-D2LR; 0.15 nM [3H]spiperone, radioligand completely displaced, read-out: pKB (converted)): 0.00977 µM
logα (logarithm of the cooperativity factor between the modulator and [3H]spiperone) (WT c-myc-D2LR; [8]): −2.26 ± 0.39
α (cooperativity factor with [3H]spiperone) (WT c-myc-D2LR; [8]): 0.005
Kb (WT c-myc-D2LR; 100 mM NMDG (no Na+), allosteric ternary complex model, 0.5 nM [3H]spiperone, read-out: KB (converted)): 0.398 µM
logα (logarithm of the cooperativity factor between the modulator and [3H]spiperone) (WT c-myc-D2LR; [7]): −1.90 ± 0.08
α (cooperativity factor with [3H]spiperone) (WT c-myc-D2LR; [7]): 0.01
Kb (WT c-myc-D2LR; 100 mM NaCl, allosteric ternary complex model, 0.5 nM [3H]spiperone, read-out: KB (converted)): 0.03 µM and 0.0302 µM
SMILES: N#Cc1ccc2c(c1)CN(CC[C@H]1CC[C@H](NC(=O)c3cc4ccncc4[nH]3)CC1)CC2 [MIPS1726]

fold loss in affinity at D80A mutant vs WT (D80^2.50A c-myc-D2LR; 100 mM NaCl): 6 fold
logα (logarithm of the cooperativity factor between the modulator and [3H]spiperone) (D80^2.50A c-myc-D2LR; [9]): −0.87 ± 0.12
α (cooperativity factor with [3H]spiperone) (D80^2.50A c-myc-D2LR; [9]): 0.13
Kb (D80^2.50A c-myc-D2LR; [9]): 0.468 µM
α (cooperativity factor with [3H]spiperone) (D80^2.50A c-myc-D2LR; [10]): 0.23
logα (logarithm of the cooperativity factor between the modulator and [3H]spiperone) (D80^2.50A c-myc-D2LR; 100 mM NaCl, 0.15 nM [3H]spiperone, ND = no inhibition of [3H]spiperone binding detected): −0.62 ± 0.06
Kb (D80^2.50A c-myc-D2LR; [10]): 0.631 µM
fold loss of negative cooperativity at D80A mutant vs WT (D80^2.50A c-myc-D2LR; cooperativity with [3H]spiperone): 4 fold and 6 fold
fold by which the WT vs E95A difference in affinity is greater in the presence of Na+ than in the absence of Na+ (E95^2.65A c-myc-D2LR): 2 fold
fold decrease in affinity at E95A mutant in the absence of Na+ vs E95A in the presence of Na+ (E95^2.65A c-myc-D2LR): 3 fold
α (cooperativity factor with [3H]spiperone) (E95^2.65A c-myc-D2LR; [9]): 0.06
logα (logarithm of the cooperativity factor between the modulator and [3H]spiperone) (E95^2.65A c-myc-D2LR; [11]): −1.24 ± 0.16
Kb (E95^2.65A c-myc-D2LR; [9]): 0.617 µM
logα (logarithm of the cooperativity factor between the modulator and [3H]spiperone) (E95^2.65A c-myc-D2LR; [10]): −1.39 ± 0.11
α (cooperativity factor with [3H]spiperone) (E95^2.65A c-myc-D2LR; [10]): 0.04
Kb (E95^2.65A c-myc-D2LR; [10]): 0.212 µM
fold loss in affinity at E95A mutant vs WT (E95^2.65A c-myc-D2LR; presence of Na+ (100 mM NaCl)): 2 fold
fold loss in affinity in the absence of Na+ vs presence of Na+ (WT c-myc-D2LR): 6 fold and 5 fold
α (cooperativity factor with [3H]spiperone) (WT c-myc-D2LR; [9]): 0.03
logα (logarithm of the cooperativity factor between the modulator and [3H]spiperone) (WT c-myc-D2LR; [11]): −1.48 ± 0.12
Kb (WT c-myc-D2LR; 100 mM NMDG (no Na+), allosteric ternary complex model, 0.15 nM [3H]spiperone, read-out: KB (converted)): 0.631 µM
logα (logarithm of the cooperativity factor between the modulator and [3H]spiperone) (WT c-myc-D2LR; [10]): −1.45 ± 0.12
α (cooperativity factor with [3H]spiperone) (WT c-myc-D2LR; [10]): 0.04
Kb (WT c-myc-D2LR; 100 mM NaCl, allosteric ternary complex model, 0.15 nM [3H]spiperone, read-out: KB (converted)): 0.1 µM
SMILES: N#Cc1ccc2c(c1)CN(CC[C@H]1CC[C@H](NC(=O)c3cc4cccc(F)c4[nH]3)CC1)CC2 [MIPS1868]
fold loss in affinity at E95A mutant vs WT (E95^2.65A c-myc-D2LR; absence of Na+ (100 mM NMDG)): no significant difference; also recorded: no additional effect

Source: publication PMC5775417 (Scientific Reports, 2018)
